25 compounds from patent US20210380606A1, “5-AZAINDAZOLE DERIVATIVES AS ADENOSINE RECEPTOR ANTAGONISTS” (Merck Patent GmbH, priority 2018, published 2021) can be followed below.

Experiment [1] addresses T1, human A2B receptors (Homo sapiens, UniProt P29275).
T1 construct: expressed in transfected cells; host or cells: HEK293
T1 sequence (P29275 1-332): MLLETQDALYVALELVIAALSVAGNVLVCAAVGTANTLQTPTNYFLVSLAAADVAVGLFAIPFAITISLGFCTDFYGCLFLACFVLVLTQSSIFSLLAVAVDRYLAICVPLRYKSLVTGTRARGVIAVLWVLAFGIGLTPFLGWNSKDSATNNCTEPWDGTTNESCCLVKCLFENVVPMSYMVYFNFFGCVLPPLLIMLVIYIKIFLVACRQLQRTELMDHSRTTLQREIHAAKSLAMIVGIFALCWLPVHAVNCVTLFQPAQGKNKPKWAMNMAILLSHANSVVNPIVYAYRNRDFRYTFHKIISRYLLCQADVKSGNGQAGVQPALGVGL
Put plainly: Functional human A2B receptor activity, recombinant HEK293 cells, cAMP (HTRF). In kind it is cell-based. The note with it: read-out: A2B (Category). The protocol:
(§1) The functional activities of human A2A and A2B receptors were determined by quantification of cAMP, being the second messenger for adenosine receptors.
(§2) After a 15 min incubation, HTRF reagents (cAMP dynamic 2, Cis Bio) were added and the cellular cAMP levels were determined using the ENVISION (Perkin Elmer) plate reader.
(In TR-FRET formats the signal depends on donor and acceptor labels being close together.)

Experiment [2] deals with T2, human A2A receptors (Homo sapiens, UniProt P29274).
T2 construct: expressed in transfected cells; host or cells: HEK293
T2 sequence (P29274 whole entry): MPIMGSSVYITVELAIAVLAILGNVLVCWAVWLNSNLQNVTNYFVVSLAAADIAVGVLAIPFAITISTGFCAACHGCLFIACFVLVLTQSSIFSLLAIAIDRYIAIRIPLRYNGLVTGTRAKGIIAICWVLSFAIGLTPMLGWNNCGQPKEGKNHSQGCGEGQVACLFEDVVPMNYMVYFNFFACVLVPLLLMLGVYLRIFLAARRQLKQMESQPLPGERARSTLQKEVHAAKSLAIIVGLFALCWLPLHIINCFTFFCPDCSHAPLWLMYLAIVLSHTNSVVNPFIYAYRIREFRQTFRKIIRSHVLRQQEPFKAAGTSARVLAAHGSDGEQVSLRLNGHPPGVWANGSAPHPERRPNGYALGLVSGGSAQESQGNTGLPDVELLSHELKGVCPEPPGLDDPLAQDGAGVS
Put plainly: Functional human A2A receptor activity, recombinant HEK293 cells, cAMP (HTRF). In kind it is cell-based. The note with it: read-out: A2A (Category). As to the method: as §1, §2

On to `O=C(c1cc2c(cn1)c(-c1cnc3ccc(F)cn13)nn2CC(F)(F)F)N1CCCOCC1` [Compound 80, [3-(6-Fluoro-imidazo[1,2-a]pyridin-3-yl)-1-(2,2,2-trifluoro-ethyl)-1H-pyrazolo[4,3-c]pyridin-6-yl]-1,4-oxazepan-4-yl-methanone], for which the IC50 in experiment [1] was less than 1000 nM; in experiment [2], less than 100 nM.
Take `CS(=O)(=O)Cn1nc(-c2cnc3ccc(F)cn23)c2cnc(C(=O)N3CCCCCC3)cc21` [Compound 20, Azepan-1-yl-[3-(6-fluoro-imidazo[1,2-a]pyridin-3-yl)-1-methanesulfonylmethyl-1H-pyrazolo[4,3-c]pyridin-6-yl]-methanone]: the IC50 in experiment [1] and in experiment [2] was less than 100 nM each time.
For the compound `O=C(c1cc2c(cn1)c(-c1cnc3c(F)cc(F)cn13)nn2CC(F)(F)F)N1C2CCCC1CC2` [Compound 172, (8-Aza-bicyclo[3.2.1]oct-8-yl)-[3-(6,8-difluoro-imidazo[1,2-a]pyridin-3-yl)-1-(2,2,2-trifluoro-ethyl)-1H-pyrazolo[4,3-c]pyridin-6-yl]-methanone], the IC50 in experiment [1] and in experiment [2] was less than 100 nM throughout.
Take `O=C(c1cc2c(cn1)c(-c1coc3ccccc13)nn2CC(F)(F)F)N1CC2CCC(C1)O2` [Compound 100, [3-Benzofuran-3-yl-1-(2,2,2-trifluoro-ethyl)-1H-pyrazolo[4,3-c]pyridin-6-yl]-(8-oxa-3-aza-bicyclo[3.2.1]oct-3-yl)-methanone]: the IC50 in experiment [1] and in experiment [2] was less than 100 nM each time.
For `O=C(c1cc2c(cn1)c(-c1coc3ccccc13)nn2CC(F)(F)F)N1CCCC(O)C1` (centres unmarked) [Compound 227, [3-Benzofuran-3-yl-1-(2,2,2-trifluoro-ethyl)-1H-pyrazolo[4,3-c]pyridin-6-yl]-(3-hydroxy-piperidin-1-yl)-methanone], the IC50 in experiment [1] and in experiment [2] was less than 100 nM each time.
For the compound `Cn1nc(-c2cnc3ccc(F)cn23)c2cnc(C(=O)N3CCCCCC3)cc21` [Compound 41, Azepan-1-yl-[3-(6-fluoro-imidazo[1,2-a]pyridin-3-yl)-1-methyl-1H-pyrazolo[4,3-c]pyridin-6-yl]-methanone], the IC50 in experiment [1] is less than 1000 nM; in experiment [2], less than 100 nM.
In the same order, the values of `O=C(c1cc2c(cn1)c(-c1coc3ccccc13)nn2CC(F)F)N1CCCOCC1` [Compound 103, [3-Benzofuran-3-yl-1-(2,2-difluoro-ethyl)-1H-pyrazolo[4,3-c]pyridin-6-yl]-1,4-oxazepan-4-yl-methanone] are less than 1000 nM and less than 100 nM.
With `Cc1oc2ccccc2c1-c1nn(CC(F)(F)F)c2cc(C(=O)N3CCCOCC3)ncc12` [Compound 126, [3-(2-methylbenzofuran-3-yl)-1-(2,2,2-trifluoroethyl)pyrazolo[4,3-c]pyridin-6-yl]-(1,4-oxazepan-4-yl)methanone], the IC50 in experiment [1] was less than 1000 nM; in experiment [2], less than 100 nM.
Consider `O=C(c1cc2c(cn1)c(-c1cnc3c(F)cc(F)cn13)nn2CC(F)(F)F)N1CCC(O)CC1` [Compound 132, [3-(6,8-Difluoro-imidazo[1,2-a]pyridin-3-yl)-1-(2,2,2-trifluoro-ethyl)-1H-pyrazolo[4,3-c]pyridin-6-yl]-(4-hydroxy-piperidin-1-yl)-methanone], for which the IC50 in experiment [1] and in experiment [2] was less than 100 nM in each case.
Take `CCCn1nc(-c2cnc3ccc(F)cn23)c2cnc(C(=O)N3CCCCCC3)cc21` [Compound 5, Azepan-1-yl-[3-(6-fluoro-imidazo[1,2-a]pyridin-3-yl)-1-propyl-1H-pyrazolo[4,3-c]pyridin-6-yl]-methanone]: the IC50 was less than 1000 nM in experiment [1] and less than 100 nM in experiment [2].
On to `CS(=O)(=O)Cn1nc(-c2cnn3ccncc23)c2cnc(C(=O)N3CCCOCC3)cc21` [Compound 250, (1-Methanesulfonylmethyl-3-pyrazolo[1,5-a]pyrazin-3-yl-1H-pyrazolo[4,3-c]pyridin-6-yl)-(1,4-oxazepan-4-yl)methanone], for which the IC50 in experiment [1] is less than 1000 nM; in experiment [2], less than 100 nM.
Turning to `NC(=O)c1ccc2ncc(-c3nn(CC(F)(F)F)c4cc(C(=O)N5CCCCCC5)ncc34)n2c1` [Compound 46, 3-[6-(Azepane-1-carbonyl)-1-(2,2,2-trifluoro-ethyl)-1H-pyrazolo[4,3-c]-pyridin-3-yl]-imidazo[1,2-a]pyridine-6-carboxylic acid amide], the IC50 in experiment [1] and in experiment [2] was less than 100 nM throughout.
`NC(=O)c1ccc2occ(-c3nn(CC(F)(F)F)c4cc(C(=O)N5CCCOCC5)ncc34)c2c1` [Compound 237, 3-[6-(1,4-oxazepane-4-carbonyl)-1-(2,2,2-trifluoroethyl)pyrazolo[4,3-c]pyridin-3-yl]benzofuran-5-carboxamide]: the IC50 in experiment [1] is less than 1000 nM; in experiment [2], less than 100 nM.
The like results for `CCCn1nc(-c2coc3ccccc23)c2cnc(C(=O)N3[C@@H]4CC[C@H]3C[C@@H](O)C4)cc21` [Compound 222, (3-Benzofuran-3-yl-1-propyl-1H-pyrazolo[4,3-c]pyridin-6-yl)-(3-endo-hydroxy-8-aza-bicyclo[3.2.1]oct-8-yl)-methanone] were, in that order, less than 1000 nM and less than 100 nM.
`CS(=O)(=O)Cn1nc(-c2cnn3ccccc23)c2cnc(C(=O)N3CC4CCC(C4)C3)cc21` [Compound 18, (3-Aza-bicyclo[3.2.1]oct-3-yl)-(1-methanesulfonylmethyl-3-pyrazolo[1,5-a]pyridin-3-yl-1H-pyrazolo[4,3-c]pyridin-6-yl)-methanone]: the IC50 in experiment [1] was less than 1000 nM; in experiment [2] it was less than 100 nM.
The like results for `CC1(O)CCN(C(=O)c2cc3c(cn2)c(-c2coc4ccccc24)nn3CS(C)(=O)=O)CC1` [Compound 32, (3-Benzofuran-3-yl-1-methanesulfonylmethyl-1H-pyrazolo[4,3-c]pyridin-6-yl)-(4-hydroxy-4-methyl-piperidin-1-yl)-methanone] were, in that order, less than 1000 nM and less than 100 nM.
In the same order, the values of `O=C(c1cc2c(cn1)c(-c1cnc3c(F)cc(F)cn13)nn2CC(F)(F)F)N1CCC(F)CC1` [Compound 144, [3-(6,8-Difluoro-imidazo[1,2-a]pyridin-3-yl)-1-(2,2,2-trifluoro-ethyl)-1H-pyrazolo[4,3-c]pyridin-6-yl]-(4-fluoro-piperidin-1-yl)-methanone] are less than 1000 nM and less than 100 nM.
Consider `CC1(O)CCN(C(=O)c2cc3c(cn2)c(-c2coc4ccccc24)nn3CC(F)(F)F)CC1` [Compound 208, [3-Benzofuran-3-yl-1-(2,2,2-trifluoro-ethyl)-1H-pyrazolo[4,3-c]pyridin-6-yl]-(4-hydroxy-4-methyl-piperidin-1-yl)-methanone], for which the IC50 in experiment [1] and in experiment [2] was less than 100 nM throughout.
On to `O=C(c1cc2c(cn1)c(-c1cnc3c(F)cc(F)cn13)nn2CC(F)(F)F)N1CCC(CO)CC1` [Compound 165, [3-(6,8-Difluoro-imidazo[1,2-a]pyridin-3-yl)-1-(2,2,2-trifluoro-ethyl)-1H-pyrazolo[4,3-c]pyridin-6-yl]-(4-hydroxymethyl-piperidin-1-yl)-methanone], for which the figures for the IC50 in experiment [1] and in experiment [2] were less than 1000 nM and less than 100 nM, respectively.
In the case of `O=C(c1cc2c(cn1)c(-c1cnc3c(F)cc(F)cn13)nn2CC(F)(F)F)N1CCCCCO1` [Compound 191, [3-(6,8-Difluoro-imidazo[1,2-a]pyridin-3-yl)-1-(2,2,2-trifluoro-ethyl)-1H-pyrazolo[4,3-c]pyridin-6-yl]-[1,2]oxazepan-2-yl-methanone], the IC50 in experiment [1] was less than 1000 nM; in experiment [2] it was less than 100 nM.
The like results for `O=C(c1cc2c(cn1)c(-c1c[nH]c3ccccc13)nn2CC(F)(F)F)N1CCCOCC1` [Compound 96, [3-(1H-Indol-3-yl)-1-(2,2,2-trifluoro-ethyl)-1H-pyrazolo[4,3-c]pyridine-6-yl]-1,4-oxazepan-4-yl-methanone] were, in that order, less than 1000 nM and less than 100 nM.
On to `O=C(c1cc2c(cn1)c(-c1c[nH]c3ccc(F)cc13)nn2CC(F)(F)F)N1CCCOCC1` [Compound 123, [3-(5-fluoro-1H-indol-3-yl)-1-(2,2,2-trifluoroethyl)pyrazolo[4,3-c]pyridin-6-yl]-(1,4-oxazepan-4-yl)methanone], for which the IC50 in experiment [1] and in experiment [2] was less than 100 nM in each case.
As for `CC1(C)CN(C(=O)c2cc3c(cn2)c(-c2cnc4c(F)cc(F)cn24)nn3CC(F)(F)F)CCCO1` [Compound 182, [3-(6,8-Difluoro-imidazo[1,2-a]pyridin-3-yl)-1-(2,2,2-trifluoro-ethyl)-1H-pyrazolo[4,3-c]pyridin-6-yl]-(2,2-dimethyl-1,4-oxazepan-4-yl)-methanone], the figures for the IC50 in experiment [1] and in experiment [2] were less than 1000 nM and less than 100 nM, respectively.
Regarding `Cc1ccc2ncc(-c3nn(CC(F)(F)F)c4cc(C(=O)N5CCCCCC5)ncc34)n2c1` [Compound 61, Azepan-1-yl-[3-(6-methyl-imidazo[1,2-a]pyridin-3-yl)-1-(2,2,2-trifluoro-ethyl)-1H-pyrazolo[4,3-c]pyridin-6-yl]-methanone], the figures for the IC50 in experiment [1] and in experiment [2] were less than 1000 nM and less than 100 nM, respectively.
In the same order, the values of `O=C(c1cc2c(cn1)c(-c1cnc3c(F)cc(F)cn13)nn2CC(F)(F)F)N1CCOCC(F)(F)C1` [Compound 185, [3-(6,8-Difluoro-imidazo[1,2-a]pyridin-3-yl)-1-(2,2,2-trifluoro-ethyl)-1H-pyrazolo[4,3-c]pyridin-6-yl]-(6,6-difluoro-1,4-oxazepan-4-yl)-methanone] are less than 1000 nM and less than 100 nM.
